Holding throughout (format): cell-based
The test system of assay [1] is A. baumannii 160S. Nature of the assay: MIC, CLSI broth microdilution assay. The conditions noted are these: agent alone. Here is the method:
(§1) For the described examples, reference and clinical isolates were generally obtained from known sources, including American Type Culture Collection (Manasas, VA.) or International Health Management Associates, Inc. (Schaumberg, IL). Bacteria were cultured in suitable broth, concentrated by centrifugation, and cryopreserved in the same medium, generally containing 20% glycerol by holding at −80° C. Every two weeks a small amount of frozen culture was removed aseptically and streaked on fresh agar plates to act as a working inoculum. Following overnight growth at about 37° C., the plates were wrapped in parafilm and held at about 4° C. Bacteria (4-5 colonies) were then aseptically transferred into broth growth medium for assays as needed.
(§2) Minimal inhibitory concentration (MIC) assays were performed in a manner as described for the CLSI broth microdilution assay guideline (see, Clinical Laboratory Standards Institute, 2009, Methods for Dilution Antimicrobial Susceptibility Tests for Bacteria That Grow Aerobically; Approved Standard, Eighth Edition, M07-A8, Vol. 29, No. 2). Antibiotics were dissolved, and then serially diluted in suitable broth across the assay plate in the classical 2-fold geometric format. Antibiotic concentrations in each well at this point were double what the final assay concentration would be. Bacterial inocula were prepared by swabbing several colonies from a fresh agar plate, and resuspending the bacteria to a density that was the 0.5 McFarland turbidity standard (generally close or equivalent to 1×10^8 CFU/mL). The bacterial inocula were diluted in the broth to about 1×10^6 CFU/mL, and a suitable amount, e.g., 100 μL was overlayered onto the wells containing the diluted antibiotics. Following incubation as per the guideline, results were recorded as growth or no growth, and the lowest concentration of antibiotic where no growth was observed was declared the MIC.
Background: Broth dilution looks for growth in wells or tubes with falling amounts of substance.

In assay [2] the test system is E. coli 7623. In words: MIC, CLSI broth microdilution assay. The conditions noted are these: agent alone. Here is the method: as §1, §2
The subject of assay [3] is E. coli ATCC 25922. In words: MIC, CLSI broth microdilution assay. The conditions noted are these: agent alone. The procedure: as §1, §2
In assay [4] the test system is K. pneumoniae 1161486. In words: MIC, CLSI broth microdilution assay. The conditions noted are these: agent alone. Here is the method: as §1, §2
Assay [5] has as its system K. pneumoniae 170S. In words: MIC, CLSI broth microdilution assay. The conditions noted are these: agent alone. Here is the method:
as §1, §2

The test system of assay [6] is E. coli 7623. In words: Synergy checkerboard assay of antibacterial combinations. The conditions noted are these: in combination with A-24. The procedure: as §1
as §2, with “Bacterial inocula were prepared by swabbing several colonies from a fresh agar plate, and resuspending the bacteria to a density that was the 0.5 McFarland turbidity standard (generally close or equivalent to 1×10^8 CFU/mL). The bacterial inocula were diluted in the broth to about 1×10^6 CFU/mL, and a suitable amount, e.g., 100 μL was overlayered onto the wells containing the diluted antibiotics.” left out
(§3) To assay for synergy of antibacterial combinations, a recognized synergy checkerboard assay, adapted from the CLSI guideline microdilution assay, was utilized (see Eliopoulos, G. M., and Moellering, R. C, Jr., 1996. Antimicrobial Combinations, pg. 330-396. In: Lorian, V. (Ed.), Antibiotics in Laboratory Medicine, 4th Ed., Williams & Wilkins; Baltimore, MD). […] The fractional inhibitory concentration, which provides the mathematical definition (as shown below) is calculated to determine whether antibacterial synergy was observed. […]

Assay [7] relates to K. pneumoniae 1161486. The assay is described as above. The conditions noted are these: in combination with A-24. Here is the method:
as §1
as §2, with “Bacterial inocula were prepared by swabbing several colonies from a fresh agar plate, and resuspending the bacteria to a density that was the 0.5 McFarland turbidity standard (generally close or equivalent to 1×10^8 CFU/mL). The bacterial inocula were diluted in the broth to about 1×10^6 CFU/mL, and a suitable amount, e.g., 100 μL was overlayered onto the wells containing the diluted antibiotics.” left out
as §3

For assay [8], the system named is K. pneumoniae 170S. The description is as above. The following applies: in combination with A-24. Here is the method: as §1
as §2, with “Bacterial inocula were prepared by swabbing several colonies from a fresh agar plate, and resuspending the bacteria to a density that was the 0.5 McFarland turbidity standard (generally close or equivalent to 1×10^8 CFU/mL). The bacterial inocula were diluted in the broth to about 1×10^6 CFU/mL, and a suitable amount, e.g., 100 μL was overlayered onto the wells containing the diluted antibiotics.” left out
as §3

Usually MIC stands for the lowest concentration found to suppress growth. Read a high MIC as a need for much substance. On to pristinamycin, for which the MIC in assay [1] is 128 µg/mL; in assay [2], 64 µg/mL; in assay [3], 64 µg/mL; in assay [4], greater than 128 µg/mL; in assay [5], greater than 128 µg/mL. In addition, the “MIC of Pristinamycin in Combo” value in assay [6] was 32 µg/mL; in assay [7], no more than 2 µg/mL; in assay [8], 2 µg/mL.
